Results on one compound are retold here after ChEMBL document CHEMBL5532720, “A Potent Solution for Tumor Growth and Angiogenesis Suppression via an ELR+CXCL-CXCR1/2 Pathway Inhibitor” (ACS Med Chem Lett, 2024).

The source made the active and inactive calls. The calls are words filed in the database; no cut-off is given here.

The nature of series [1]: Stability of compound at pH 12 measured after 24 hrs. Format: physicochemical. To be noted: buffer, pH 12, 24 h.
Series [2] in a line: Genotoxicity in Salmonella typhimurium TA98 upto 100 uM in presence of S9 fraction by Ames test. Format: toxicity, subcellular. To be noted: salmonella enterica subsp. enterica serovar typhimurium, s9, 100 µM.
A short description of series [3]: Cmax in NOD SCID mouse at 200 mg/kg, po. In kind it is ADME, organism-based. To be noted: in vivo.
Series [4] in a line: Antiproliferative activity against human Cisplatin and radiotherapy resistant CAL33RR cells incubated for 48 hrs by XTT assay. In kind it is functional, cell-based.
The target in series [5] is Ephrin type-A receptor 5 (Homo sapiens) (UniProt P54756). The experiment in a line: Inhibition of EPHA5 (unknown origin) at 10 uM in presence of ATP at Km concentration.
Chain of Ephrin type-A receptor 5 (Homo sapiens) (P54756 whole entry): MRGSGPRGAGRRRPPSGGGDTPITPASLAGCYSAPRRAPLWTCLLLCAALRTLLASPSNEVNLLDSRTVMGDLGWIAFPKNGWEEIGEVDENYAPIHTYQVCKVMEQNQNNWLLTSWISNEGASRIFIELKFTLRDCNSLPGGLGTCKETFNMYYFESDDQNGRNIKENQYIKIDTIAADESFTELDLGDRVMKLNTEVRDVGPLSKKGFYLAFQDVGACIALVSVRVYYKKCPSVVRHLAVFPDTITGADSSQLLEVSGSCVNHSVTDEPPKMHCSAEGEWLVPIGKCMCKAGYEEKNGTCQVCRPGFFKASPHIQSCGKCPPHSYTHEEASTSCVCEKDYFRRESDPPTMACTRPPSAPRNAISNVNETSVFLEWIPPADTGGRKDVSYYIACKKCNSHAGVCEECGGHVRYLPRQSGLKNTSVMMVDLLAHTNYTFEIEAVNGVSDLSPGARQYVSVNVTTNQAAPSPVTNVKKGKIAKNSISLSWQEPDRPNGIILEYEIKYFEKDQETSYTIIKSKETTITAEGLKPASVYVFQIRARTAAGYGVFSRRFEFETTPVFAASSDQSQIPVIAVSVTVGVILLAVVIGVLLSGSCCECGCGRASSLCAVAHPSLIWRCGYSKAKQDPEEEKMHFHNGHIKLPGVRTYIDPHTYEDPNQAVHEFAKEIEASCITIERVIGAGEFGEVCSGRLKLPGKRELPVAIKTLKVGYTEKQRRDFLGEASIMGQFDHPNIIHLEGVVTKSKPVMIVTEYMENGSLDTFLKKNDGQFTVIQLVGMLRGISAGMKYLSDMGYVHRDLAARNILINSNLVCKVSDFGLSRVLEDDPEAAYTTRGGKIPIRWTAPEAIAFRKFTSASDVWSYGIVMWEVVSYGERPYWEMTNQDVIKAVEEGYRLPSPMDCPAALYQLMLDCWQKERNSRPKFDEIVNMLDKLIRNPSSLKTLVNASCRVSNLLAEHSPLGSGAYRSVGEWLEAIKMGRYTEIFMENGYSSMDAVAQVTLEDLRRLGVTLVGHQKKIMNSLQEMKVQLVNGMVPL
In series [6] the target is Serine/threonine-protein kinase PLK1 (Homo sapiens) (UniProt P53350). The series can be described thus: Inhibition of PLK1 (unknown origin) at 10 uM in presence of ATP at Km concentration.
Chain of Serine/threonine-protein kinase PLK1 (Homo sapiens) (P53350 whole entry): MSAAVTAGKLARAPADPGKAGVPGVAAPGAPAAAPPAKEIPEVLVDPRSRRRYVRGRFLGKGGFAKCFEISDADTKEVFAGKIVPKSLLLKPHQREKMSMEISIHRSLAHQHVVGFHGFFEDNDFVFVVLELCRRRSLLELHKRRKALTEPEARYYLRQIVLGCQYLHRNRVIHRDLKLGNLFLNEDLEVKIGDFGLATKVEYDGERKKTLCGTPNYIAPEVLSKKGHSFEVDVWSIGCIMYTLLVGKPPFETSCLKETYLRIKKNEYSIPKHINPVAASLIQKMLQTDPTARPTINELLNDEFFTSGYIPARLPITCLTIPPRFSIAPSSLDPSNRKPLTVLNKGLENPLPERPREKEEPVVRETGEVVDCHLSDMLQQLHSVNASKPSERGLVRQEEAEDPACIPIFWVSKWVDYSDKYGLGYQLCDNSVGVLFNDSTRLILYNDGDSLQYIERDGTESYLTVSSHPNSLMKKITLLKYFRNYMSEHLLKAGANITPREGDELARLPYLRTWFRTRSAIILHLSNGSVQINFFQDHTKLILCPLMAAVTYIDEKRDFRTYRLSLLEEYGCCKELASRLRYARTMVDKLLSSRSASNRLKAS
The target of series [7] is Serine/threonine-protein kinase TAO1 (Homo sapiens) (UniProt Q7L7X3). The experiment in a line: Inhibition of TAOK1 (unknown origin) at 10 uM in presence of ATP at Km concentration.
Chain of Serine/threonine-protein kinase TAO1 (Homo sapiens) (Q7L7X3 whole entry): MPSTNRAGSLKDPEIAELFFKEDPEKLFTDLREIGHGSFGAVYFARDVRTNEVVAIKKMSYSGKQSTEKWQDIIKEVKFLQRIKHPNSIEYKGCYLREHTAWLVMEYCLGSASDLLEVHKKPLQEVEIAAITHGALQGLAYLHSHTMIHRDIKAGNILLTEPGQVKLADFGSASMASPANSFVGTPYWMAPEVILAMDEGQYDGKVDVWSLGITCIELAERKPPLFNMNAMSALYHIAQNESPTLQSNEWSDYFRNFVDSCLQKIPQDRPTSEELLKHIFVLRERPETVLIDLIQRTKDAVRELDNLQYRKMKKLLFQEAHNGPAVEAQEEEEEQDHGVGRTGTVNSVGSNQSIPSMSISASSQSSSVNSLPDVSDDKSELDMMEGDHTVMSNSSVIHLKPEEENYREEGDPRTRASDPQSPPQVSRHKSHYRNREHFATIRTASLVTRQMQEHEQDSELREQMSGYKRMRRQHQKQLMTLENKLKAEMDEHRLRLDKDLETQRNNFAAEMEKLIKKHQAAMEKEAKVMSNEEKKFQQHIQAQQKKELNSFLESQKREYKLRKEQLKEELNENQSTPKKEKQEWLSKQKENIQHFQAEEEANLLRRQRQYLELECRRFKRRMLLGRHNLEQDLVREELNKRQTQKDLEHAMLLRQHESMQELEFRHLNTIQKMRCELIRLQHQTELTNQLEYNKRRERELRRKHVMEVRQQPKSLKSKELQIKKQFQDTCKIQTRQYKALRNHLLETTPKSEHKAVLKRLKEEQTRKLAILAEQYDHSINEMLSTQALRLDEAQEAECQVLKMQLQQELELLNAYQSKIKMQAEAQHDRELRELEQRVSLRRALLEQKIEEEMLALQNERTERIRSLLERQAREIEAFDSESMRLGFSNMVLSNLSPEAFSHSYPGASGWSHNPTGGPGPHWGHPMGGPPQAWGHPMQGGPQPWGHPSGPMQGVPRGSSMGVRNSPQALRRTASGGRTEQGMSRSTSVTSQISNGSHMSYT
Series [8] addresses Focal adhesion kinase 1 (Homo sapiens) (UniProt Q05397). The experiment in a line: Inhibition of PTK2 (unknown origin) at 10 uM in presence of ATP at Km concentration.
Series [9] addresses Glycogen synthase kinase-3 beta (Homo sapiens) (UniProt P49841). The series can be described thus: Inhibition of GSK3B (unknown origin) at 10 uM in presence of ATP at Km concentration.
Series [10] in a line: AUC (0 to infinity) in NOD SCID mouse at 1 mg/kg, iv. In kind it is ADME, organism-based. To be noted: in vivo.

Chain of Glycogen synthase kinase-3 beta (Homo sapiens) (P49841 whole entry, looked up): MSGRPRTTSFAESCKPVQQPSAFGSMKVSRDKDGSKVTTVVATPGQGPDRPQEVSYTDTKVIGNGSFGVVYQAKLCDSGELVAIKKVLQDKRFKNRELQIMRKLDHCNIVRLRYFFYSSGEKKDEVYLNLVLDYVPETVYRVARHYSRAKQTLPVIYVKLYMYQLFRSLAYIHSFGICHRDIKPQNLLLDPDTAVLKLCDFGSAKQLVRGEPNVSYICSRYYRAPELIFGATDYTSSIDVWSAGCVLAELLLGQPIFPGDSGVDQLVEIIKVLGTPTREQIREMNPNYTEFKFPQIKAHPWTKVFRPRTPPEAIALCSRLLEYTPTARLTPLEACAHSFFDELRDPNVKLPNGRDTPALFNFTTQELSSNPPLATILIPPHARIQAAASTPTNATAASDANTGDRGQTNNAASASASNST
Chain of Focal adhesion kinase 1 (Homo sapiens) (Q05397 2-1052 limits assumed): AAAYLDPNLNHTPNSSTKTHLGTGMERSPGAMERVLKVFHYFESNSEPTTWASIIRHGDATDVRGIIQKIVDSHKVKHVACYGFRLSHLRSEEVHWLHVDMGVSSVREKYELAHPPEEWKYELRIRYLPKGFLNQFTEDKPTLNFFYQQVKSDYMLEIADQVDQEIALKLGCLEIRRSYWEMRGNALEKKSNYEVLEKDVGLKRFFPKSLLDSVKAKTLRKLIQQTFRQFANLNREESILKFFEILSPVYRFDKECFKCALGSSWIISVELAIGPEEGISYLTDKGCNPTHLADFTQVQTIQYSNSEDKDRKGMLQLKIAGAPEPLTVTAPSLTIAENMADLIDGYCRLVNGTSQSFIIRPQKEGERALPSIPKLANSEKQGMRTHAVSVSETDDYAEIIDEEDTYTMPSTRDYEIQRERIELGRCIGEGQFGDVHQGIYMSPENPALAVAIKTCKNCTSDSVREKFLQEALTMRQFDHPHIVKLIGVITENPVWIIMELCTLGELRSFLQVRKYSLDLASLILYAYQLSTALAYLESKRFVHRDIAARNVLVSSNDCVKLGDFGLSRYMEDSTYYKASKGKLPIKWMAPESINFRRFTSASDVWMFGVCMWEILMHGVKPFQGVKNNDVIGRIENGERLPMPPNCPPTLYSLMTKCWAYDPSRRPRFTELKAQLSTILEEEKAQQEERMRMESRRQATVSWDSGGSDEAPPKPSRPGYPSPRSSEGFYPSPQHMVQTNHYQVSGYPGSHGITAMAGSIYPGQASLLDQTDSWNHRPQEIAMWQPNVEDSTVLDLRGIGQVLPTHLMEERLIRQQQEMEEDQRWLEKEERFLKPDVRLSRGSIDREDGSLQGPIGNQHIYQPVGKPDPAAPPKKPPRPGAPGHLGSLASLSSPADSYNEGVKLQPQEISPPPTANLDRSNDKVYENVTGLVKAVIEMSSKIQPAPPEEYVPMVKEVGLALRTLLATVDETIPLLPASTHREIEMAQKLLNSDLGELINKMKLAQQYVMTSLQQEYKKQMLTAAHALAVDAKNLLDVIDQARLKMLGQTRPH

Usually Cmax stands for the peak of the concentration-time curve. The IC50 is the midpoint of a concentration-inhibition curve. The AUC(0-inf) is the area under the concentration-time curve extrapolated to infinity. Low readings indicate less exposure, high ones more exposure. `O=C(Nc1cc(Cl)cc(Cl)c1)Nc1nc2ccc([N+](=O)[O-])cc2s1`: in series [1], the Stability entry is given as “Stable”. The Activity entry in [2] is given as “Non-Toxic”. The peak level in series [3] (Cmax) was 5.2 µM. The compound also came in with an IC50 in series [4] of 4 µM. Besides, the inhibition entry in series [5], in series [6], in series [7], in series [8] and in [9] was “inactive” each time. The compound further yielded an AUC(0-inf) in series [10] of 433 ng·h/mL.
